The source of these data is US20050037450A1, “Novel targets for lithium therapy” (Duke University, priority 2002, published 2005).

The test system of experiment [1] is intracellular PAP in wild type yeast. As to the kind of experiment: Intracellular PAP concentration by GST-PST binding assay, wild type yeast. Type of experiment: cell-based, S. cerevisiae. The protocol: Yeast were grown in CM/ura^− containing 2% galactose to mid-log phase. The cultures were washed extensively and resuspended in the CM/ura^−/met^− media with the noted inclusions. PAP was measured using the ligand binding assay described in Experimental Procedures. Intracellular PAP concentrations were normalized to the amount of soluble protein extracted from the cultures.
For the assay of intracellular PAP concentrations, appropriate yeast strains were grown in CM/ura^− to mid-log phase (OD600=1.0). The cells were centrifuged and washed extensively in sterile water. The cells were resuspended in CM/ura^−/met^− containing methionine (20 μg/ml), lithium, or chlorate as appropriate. The cultures were incubated with shaking at 30° C. At various time points, 2 ml of culture was removed and centrifuged. The cells were washed with 1 ml of water. 250 μl was centrifuged and resuspended in 200 μl K-lysis buffer. 200 μl of glass beads were added, and the cells were disrupted by vigorous bead beating. The amount of soluble protein in this extract was determined using a Bradford dye-binding assay (BioRad, Hercules, Calif., United States of America) with bovine serum albumin as a standard. The remaining 750 μl of washed cells was spun down and resuspended in 250 μl of 2 N HClO4. This was incubated at 4° C. for 20 min, when 250 μl of 1.8 N KOH, 0.4 N KHCO3 were added to neutralize and precipitate the HClO4. The extract was centrifuged at 4° C. to remove the debris, and the supernatant was lyophilized using a rotary evaporator. The dried extracts were frozen at −80° C. for no more than one week prior to use. Extracts were reconstituted in 100 μL of 200 mM HEPES, pH 7.5 and again centrifuged to remove debris. 5′ [^32P] 3′, 5′ PAP was created as described (Spiegelberg, 1999). The GST-PST assay was performed by mixing 10 μL of standard PAP, treated as above, or 10 μL of sample diluted approximately 1:1000 in K-lysis buffer, with 10 μL of radiolabeled PAP (approximately 10,000 CPM). Eighty microliters of a reaction mix containing 100 mM HEPES, pH 7.0, 5 mM DTT, 0.2 mg/ml BSA, and 1 μg of GST-PST were added to start the binding reaction. The reactions were allowed to equilibrate for at least one hour at room temperature. Following incubation, 20 μl of a 50:50 slurry of glutathione sepharose in K-lysis buffer was added. The tubes were incubated with gentle mixing for 10 min at room temperature. The protein with bound PAP was pulled down by centrifugation for 2 min at room temperature. 80 μl of the supernatant, containing free PAP, was removed to a scintillation vial and 200 μl of K-lysis buffer was added to wash the resin. The tubes were centrifuged again and the 200 μl wash was transferred to the original scintillation vials. Radioactivity was determined by adding 5 ml of […] ECONO2™ scintillation fluid (Fisher Scientific, Hampton, N.H., United States of America) and counted in a liquid scintillation counter. The counts were converted to percent isotope bound, and a standard curve was prepared by plotting percent bound vs. the logarithm of the PAP concentration. […]
The GST-PST binding assay was used to determine relative intracellular PAP concentrations in yeast strains grown under various conditions. The PAP concentration determined in the binding assay was normalized to the total soluble protein in parallel extracts, and background was eliminated by reporting only the signal that was sensitive to in vitro degradation by purified recombinant Hal2p. […]

Experiment [2] concerns the target T1, 1ptase D54A (aspartate to alanine) (Bos taurus, UniProt P21327, D54A).
T1 sequence (P21327 1-400 D54A): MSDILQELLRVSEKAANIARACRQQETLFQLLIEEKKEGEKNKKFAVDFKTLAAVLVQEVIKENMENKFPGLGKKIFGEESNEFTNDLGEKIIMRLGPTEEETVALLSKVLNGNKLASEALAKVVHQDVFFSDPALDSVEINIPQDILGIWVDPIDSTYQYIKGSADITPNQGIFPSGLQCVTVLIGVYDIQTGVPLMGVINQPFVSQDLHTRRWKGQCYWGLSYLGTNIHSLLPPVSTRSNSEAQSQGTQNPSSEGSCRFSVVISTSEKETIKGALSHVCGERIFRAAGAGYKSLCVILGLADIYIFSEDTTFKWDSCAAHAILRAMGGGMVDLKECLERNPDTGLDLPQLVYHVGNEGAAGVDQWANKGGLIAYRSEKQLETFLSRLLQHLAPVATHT
The experiment in a line: Lithium inhibition of 1ptase D54A mutant. The experiment is classed as biochemical, bovine. From the text: Low concentrations of lithium and high concentrations of normally catalytic magnesium inhibit Impase and 1ptase uncompetitively with respect to substrate. The inhibitory effects of lithium and magnesium are mutually exclusive in Impase, implying that the inhibitory metals bind at the same or overlapping sites (Ganzhorn, 1990). Structural studies of 1ptase offered additional evidence. […] This was interpreted to mean that electron-poor lithium was bound at the second metal binding site, excluding the binding of electron-rich gadolinium, leading to a dearth of electron density at this site. This conclusion was supported by mutagenic data in which a residue that anchors the second metal binding site, Asp-54 (homologous to Impase Asp-47 (FIGS. 1 and 2)), was mutated to alanine.
FIG. 24 summarizes the results of mutagenic and crystallography experiments representing the lithium binding site in 1ptase. […] When 1ptase was crystallized in the presence of metal and lithium, however, the density at metal site 2 disappeared. This is explained by the fact that lithium, having only 2 electrons, is invisible (right panel). Therefore, loss of occupancy at metal site 2 is a result of invisible lithium binding there, excluding the binding of more electron rich metals. […]

Take `[Li]` [lithium]: the “Fold increase of PAP concentration” value in experiment [1] was “at least 85.8 fold”. The “Intracellular PAP concentration” value in experiment [1] (wild type, 100 mM LiCl, 8 hr, absence of methionine, normalized to soluble protein) is on record as 42.9 nmol/mg. For the same compound, the Ki in experiment [2] came out at 100 mM.

One may read the Ki as a dissociation constant, usually derived from enzyme kinetics or from competition with a known ligand. Low readings indicate tighter binding, high ones weaker binding.
